According to patent publication US8853194B2, “Sterol derivatives and their synthesis and use” (priority 2009, dated 2014):
Values joined by “and” are separate entries in the source; they are usually repeats but may differ in a detail not shown here. Equal values may be shown once. Read-outs that look alike come from different tables or passages of the source. Marks after values point to notes of the source that are not given here.

Key:
mouse hepatoma cells H22 = test system: mouse hepatoma cells H22
Experimental: Ascites mice S180 and H22 that had been vaccinated 7 days were sacrificed by cervical, from which ascites were obtained under sterile conditions respectively; the obtained ascites were washed twice with culture medium RPMI1640, and prepared to a 2×10^7/ml suspension in sterile physiological saline. The suspension of cell S180 was inoculated subcutaneously in the right axillas of 40 mice (0.1 ml/mouse) to produce solid tumor models; while the suspension of cell H22 was inoculated in abdominal cavities of 40 mice (0.2 ml/mouse) by conditional means under sterile conditions to produce ascites tumor models.
90 mice were randomly divided into 9 groups of 3 types, wherein the first type group was a normal control group, the second type groups were S180 solid tumor groups including a positive (cyclophosphamide) control group, a negative control group, a low dose group and a high dose group, and the third type groups were H22 ascites groups including a positive (cyclophosphamide) control group, a negative control group, a low dose group and a high dose group. There were 10 mice in each group. The experiment was repeated for three times.
[…], the negative control group was injected same volume of corn oil, and the positive control group was injected cyclophosphamide injection solution with the dose of 0.02 g/(Kg.d). The used injection volume was 0.1 ml/mouse and the injection was given as intraperitoneal injection every other day for 15 days. During the 15 days, general activities, fur, feces, etc. of the mice were daily observed. 24 hours after the last administration, mice that had been inoculated subcutaneously with S180 were sacrificed by cervical, from which tumors, thymus and spleen were taken out. After the last administration, mice that had been inoculated in abdominal cavities with H22 were conventionally bred continually, weighted and observed the survival time every day until all the mice in the negative group were dead.
24 hours after the inoculation of ascites, the weight and the amount of abdominal circumference of the mice in the groups of ascites models were measured. The drug administration and breeding were continued according to different groups, the weight and the abdominal circumference were measured daily until one day before death. The weight increase (g) and abdominal-circumference increase (cm) were calculated. The experiment started on the day of tumor inoculation and ended on the day when all the mice in the negative control group were dead; the time of deaths were recorded, and the survival extending rate was calculated. Survival Extending Rate(%)=[(mean survival days of treatment group−mean survival days of negative control group)/mean survival days of control group]×100%
After finishing the administration in all mice in the solid tumor group, the mice were sacrificed and their spleens and livers were weighed by electronic balance. The spleen index was equivalent to the spleen weight (mg) of mice in each group divided by the weight of the mice, while the liver index was equivalent to the liver weight […] divided by the weight (g) of the mice.

ICR mice = assay: Intraperitoneal injection LD50 for mouse (KORBER's method); format: in vivo; conditions: for Animal deaths: 10 mice, in 7 days
Experimental: I. Experiment Item: Intraperitoneal injection LD50 for mouse (KORBER's method)
ICR mice (SPF grade), with a weight range of 18-22 g, provided by Vital River Laboratories (VRL) in Beijing, China, were used. There were 5 treatment groups in total, wherein 2000 mg/kg was the highest dose, and the others decreased to 0.8 times, i.e. 1600 mg/kg, 1280 mg/kg, 1024 mg/kg and 819.2 mg/kg. The mice were randomly divided into groups. Each group had 10 mice with half male and half female. Each mouse was introperitoneal injected (0.2 ml/10 g. Observed 3-7 days, a variety of animal responses and the amount of dead mice in each group were recorded. LD50 and confidence limits were calculated by the modified Karber method(Korbor) according to the mortality rate of animals in each group.

[1] = test system: human lung cancer cell A549
Experimental: (§1) The human hepatoma cells HepG2, human lung cancer cells A549 and NIH3T3 cells were recovered, and subcultured in culture flasks. Once the cells grew to the logarithmic phase, the experiment can be started. The cells were digested by high-pressure filtered trypsin to prepare a cell-containing suspension, dyed for 3 minutes with 0.4% trypan blue, and then counted with the blood-cell counter (living cells were not colored, while dead cells were stained blue).
(§2) The three types of cells in logarithmic phase were seeded in 96-well plates with a density of 1×10^4/ml (200 μL/well), and then cultivated for 24 hours at 37° C. in 5% CO2 cultivable box. The culture media was aspirated and discarded. […] After cultivating for 24 hours and 48 hours, 100 ul supernatant was carefully aspirated and discarded, respectively. MTS (20 μl/well) was added and mixed evenly. The mixture was cultivated for 1 hour at 37° C. in 5% CO2 cultivable box. The absorbency at 492 nm was determined by quantitative Enzyme-linked immunosorbent assay (ELISA). The experiment was repeated for three times. The growth inhibition rate was calculated as follows. Growth Inhibition rate(%)=[(mean OD value of control group−mean OD value of treatment group)/mean OD value of control group]×100%

[2] = test system: human immortalized fibroblast cell NIH3T3
Experimental: as §1, §2

[3] = test system: human hepatoma cell HepG2
Experimental: as §1, §2

[4] = H22 ascites mice, low dose 16 mg/kg i.p. every other day for 15 days
[5] = mice, intraperitoneal injection, modified Karber method

## CC(C)CCC[C@@H](C)[C@H]1CC[C@@H]2[C@]1(C)CC[C@H]1[C@]23C=C[C@]2(CC(=O)CC[C@]12C)OO3 [CL168-6, 5α,8α-cyclicobioxygen-6-cholesten-3-one]
Mouse hepatoma cells H22; H22 ascites mice, high dose 32 mg/kg i.p. every other day for 15 days
  Abdominal circumference increase (cm): 2.32 ± 0.71^(2)(4) cm
Mouse hepatoma cells H22; [4]
  Abdominal circumference increase (cm): 2.84 ± 0.34^(2)(3) cm
  Survival extending rate (%): 37.11%
  Survival time (day): 13.3 ± 1.77^(4) day
  Weight increase (g): 7.16 ± 1.39^(4) g
Mouse hepatoma cells H22; mouse, in vivo, ip, 16 mg/kg
  Liver index (100 g/g): 4.9 ± 0.24^(1)(4) 100 g/g
  Spleen index (mg/g): 6.53 ± 1.29^(2)(4) mg/g
Mouse hepatoma cells H22; mouse, in vivo, ip, 32 mg/kg
  Liver index (100 g/g): 5.19 ± 0.64^(2)(4) 100 g/g
  Spleen index (mg/g): 5.76 ± 0.96^(2)(4) mg/g
  Survival extending rate (%): 51.55%
  Survival time (day): 14.7 ± 1.41^(4) day
  Weight increase (g): 5.05 ± 1.88^(4) g
ICR mice; 819.2 mg/kg i.p.
  Animal deaths: 0
ICR mice; 1024 mg/kg i.p.
  Animal deaths: 1
ICR mice; 1280 mg/kg i.p.
  Animal deaths: 3
ICR mice; 1600 mg/kg i.p.
  Animal deaths: 6
ICR mice; 2000 mg/kg i.p.
  Animal deaths: 8
ICR mice; 819.2-2000 mg/kg i.p., first 12 hours
  Death in the 12 hours after administration: no death appeared
ICR mice; [5]
  LD50: 1479.11 mg/kg and 1479 mg/kg
  LD50 95% confidence interval: 1304.19 to 1677.49 mg/kg
[1]; 2.5 μg/ml
  24 h Inhibition rate (%) A549: 48.69%
  48 h Inhibition rate (%) A549: 51.91%
[1]; 5.0 μg/ml
  24 h Inhibition rate (%) A549: 55.78* %
  48 h Inhibition rate (%) A549: 59.75* %
[1]; 10.0 μg/ml
  24 h Inhibition rate (%) A549: 62.40%
  48 h Inhibition rate (%) A549: 69.67% and 69.37* %
[2]; 2.5 μg/ml
  24 h Inhibition rate (%) NIH3T3: 3.87%
  48 h Inhibition rate (%) NIH3T3: 0.75%
[2]; 5.0 μg/ml
  24 h Inhibition rate (%) NIH3T3: 5.69%
  48 h Inhibition rate (%) NIH3T3: 1.97%
[2]; 10.0 μg/ml
  24 h Inhibition rate (%) NIH3T3: 8.45%
  48 h Inhibition rate (%) NIH3T3: 5.37%
[3]; 2.5 μg/ml
  24 h Inhibition rate (%) HepG2: 52.85%
  48 h Inhibition rate (%) HepG2: 59.83%
[3]; 5.0 μg/ml
  24 h Inhibition rate (%) HepG2: 58.51* %
  48 h Inhibition rate (%) HepG2: 69.08* %
[3]; 10.0 μg/ml
  24 h Inhibition rate (%) HepG2: 64.39%
  48 h Inhibition rate (%) HepG2: 73.67%
